Laboratory results taken from patent publication US11180521B2, “Nicotinamide riboside analogs, pharmaceutical compositions, and uses thereof” (Metro International Biotech, LLC, priority 2018, dated 2021).

Tests used:
[1] = tested on: NAD, NAAD, NAM, and NMN levels in liver; assay: PK/PD duration of effect study, single oral gavage dose: NAD, NAAD, NAM and NMN levels in liver; format: in vivo, C57BL/6 mice; parameters: key to NAAD concentration: BQL: Below quantitation limit; BDL: Below Detection Limit, No Peak Detected; settings: for NAAD concentration: pre-dose BDL
Experimental: (§1) Transcyclohexyl nicotinic acid riboside (NaR) dimer was administered by oral gavage at a dose of 500 mg/kg in an Ethanol/PBS, pH 7.4/PEG400 (10/30/60) vehicle. The dosing volume was 5 ml/kg at a solution concentration of 100 mg/ml. The solution concentration was increased for the presence of counterion.
(§2) Animals were fasted for 16 hours prior to dosing. Samples were collected pre-dose and at 0.25, 0.75, 1, 2, 4, 8 and 24 hr post dosing. Following euthanasia, the entire liver and skeletal muscle (gastrocnemius with attached soleus muscle, bilateral) were rinsed with 0.9% saline, and frozen for later bioanalysis. Samples were maintained frozen at −80° C. until bioanalysis.
(§3) Samples were thawed, homogenized, extracted and analyzed by LC-MS on the same day. The LC used was a Shimadzu Nexera UPLC, and the mass spectrometer was an AB Sciex Qtrap 6500. Specimens were analyzed for levels of administered compound (transcyclohexyl NaR dimer), as well as for levels of NAD, NAAD, NAM, and NMN by the method of standard addition, to detect alterations from the basal levels of the analytes. Calibration standards for quantifying administered compound were prepared using transcyclohexyl NaR dimer in mouse liver or skeletal muscle homogenates. Corresponding standards for quantifying other metabolites were also prepared. Data are calculated as the mean concentration from n=6 animals per time point.

[2] = tested on: NAD, NAAD, NAM, and NMN levels in skeletal muscle; assay: PK/PD duration of effect study, single oral gavage dose: NAD, NAAD, NAM and NMN levels in skeletal muscle; format: in vivo, C57BL/6 mice; parameters: key to NAAD concentration: BQL: Below quantitation limit; BDL: Below Detection Limit, No Peak Detected
Experimental: as §1, §2, §3

With CC(=O)OC[C@H]1O[C@@H]([n+]2cccc(C(=O)O[C@H]3CC[C@H](OC(=O)c4ccc[n+]([C@@H]5O[C@H](COC(C)=O)[C@@H](OC(C)=O)[C@H]5OC(C)=O)c4)CC3)c2)[C@H](OC(C)=O)[C@@H]1OC(C)=O [transcyclohexyl NaR dimer, Transcyclohexyl nicotinic acid riboside (NaR) dimer] the NMN concentration ([1]; 0.25 hr after 500 mg/kg oral gavage, pre-dose 0.00637) was 0.00556 mmol/kg, the NAM concentration ([1]; 0.25 hr after 500 mg/kg oral gavage, pre-dose 0.430) was 0.481 mmol/kg and the NAD concentration ([1]; 0.25 hr after 500 mg/kg oral gavage, pre-dose 1.08) was 0.938 mmol/kg. For the same molecule, the NMN concentration ([1]; 0.25 hr after 500 mg/kg oral gavage, pre-dose 2.13) was 1.86 µg/g, the NAM concentration ([1]; 0.25 hr after 500 mg/kg oral gavage, pre-dose 52.5) was 58.7 µg/g and the NAD concentration ([1]; 0.25 hr after 500 mg/kg oral gavage, pre-dose 713) was 623 µg/g. For the same molecule, the NAAD concentration ([1]; 0.25 hr after 500 mg/kg oral gavage) was “BDL”, the NMN concentration ([1]; 0.75 hr after 500 mg/kg oral gavage, pre-dose 0.00637) was 0.00977 mmol/kg and the NAM concentration ([1]; 0.75 hr after 500 mg/kg oral gavage, pre-dose 0.430) was 1.69 mmol/kg. It also gave an NAD concentration ([1]; 0.75 hr after 500 mg/kg oral gavage, pre-dose 1.08) of 0.493 mmol/kg, an NMN concentration ([1]; 0.75 hr after 500 mg/kg oral gavage, pre-dose 2.13) of 3.26 µg/g and an NAM concentration ([1]; 0.75 hr after 500 mg/kg oral gavage, pre-dose 52.5) of 206 µg/g. The NAD concentration ([1]; 0.75 hr after 500 mg/kg oral gavage, pre-dose 713) was 327 µg/g, the NAAD concentration ([1]; 0.75 hr after 500 mg/kg oral gavage) was “BDL” and the NMN concentration ([1]; 1 hr after 500 mg/kg oral gavage, pre-dose 0.00637) was 0.00945 mmol/kg. For the same molecule, the NAM concentration ([1]; 1 hr after 500 mg/kg oral gavage, pre-dose 0.430) was 1.48 mmol/kg, the NAD concentration ([1]; 1 hr after 500 mg/kg oral gavage, pre-dose 1.08) was 0.575 mmol/kg and the NMN concentration ([1]; 1 hr after 500 mg/kg oral gavage, pre-dose 2.13) was 3.16 µg/g. For the same molecule, the NAM concentration ([1]; 1 hr after 500 mg/kg oral gavage, pre-dose 52.5) was 181 µg/g, the NAD concentration ([1]; 1 hr after 500 mg/kg oral gavage, pre-dose 713) was 381 µg/g and the NAAD concentration ([1]; 1 hr after 500 mg/kg oral gavage) was “BDL”. It also gave an NMN concentration ([1]; 2 hr after 500 mg/kg oral gavage, pre-dose 0.00637) of 0.00706 mmol/kg, an NAM concentration ([1]; 2 hr after 500 mg/kg oral gavage, pre-dose 0.430) of 0.660 mmol/kg and an NAD concentration ([1]; 2 hr after 500 mg/kg oral gavage, pre-dose 1.08) of 1.19 mmol/kg. For the same molecule, the NMN concentration ([1]; 2 hr after 500 mg/kg oral gavage, pre-dose 2.13) was 2.36 µg/g, the NAM concentration ([1]; 2 hr after 500 mg/kg oral gavage, pre-dose 52.5) was 80.6 µg/g and the NAD concentration ([1]; 2 hr after 500 mg/kg oral gavage, pre-dose 713) was 787 µg/g. It also gave an NMN concentration ([1]; 4 hr after 500 mg/kg oral gavage, pre-dose 0.00637) of 0.0146 mmol/kg, an NAM concentration ([1]; 4 hr after 500 mg/kg oral gavage, pre-dose 0.430) of 0.791 mmol/kg and an NAD concentration ([1]; 4 hr after 500 mg/kg oral gavage, pre-dose 1.08) of 2.23 mmol/kg. For the same molecule, the NMN concentration ([1]; 4 hr after 500 mg/kg oral gavage, pre-dose 2.13) was 4.87 µg/g, the NAM concentration ([1]; 4 hr after 500 mg/kg oral gavage, pre-dose 52.5) was 96.5 µg/g and the NAD concentration ([1]; 4 hr after 500 mg/kg oral gavage, pre-dose 713) was 1478 µg/g. For the same molecule, the NMN concentration ([1]; 8 hr after 500 mg/kg oral gavage, pre-dose 0.00637) was 0.0250 mmol/kg, the NAM concentration ([1]; 8 hr after 500 mg/kg oral gavage, pre-dose 0.430) was 0.609 mmol/kg and the NAD concentration ([1]; 8 hr after 500 mg/kg oral gavage, pre-dose 1.08) was 4.92 mmol/kg. For the same molecule, the NMN concentration ([1]; 8 hr after 500 mg/kg oral gavage, pre-dose 2.13) was 8.34 µg/g, the NAM concentration ([1]; 8 hr after 500 mg/kg oral gavage, pre-dose 52.5) was 74.3 µg/g and the NAD concentration ([1]; 8 hr after 500 mg/kg oral gavage, pre-dose 713) was 3267 µg/g. The NMN concentration ([1]; 24 hr after 500 mg/kg oral gavage, pre-dose 0.00637) was 0.00459 mmol/kg, the NAM concentration ([1]; 24 hr after 500 mg/kg oral gavage, pre-dose 0.430) was 0.381 mmol/kg and the NAD concentration ([1]; 24 hr after 500 mg/kg oral gavage, pre-dose 1.08) was 1.10 mmol/kg. The NMN concentration ([1]; 24 hr after 500 mg/kg oral gavage, pre-dose 2.13) was 1.53 µg/g, the NAM concentration ([1]; 24 hr after 500 mg/kg oral gavage, pre-dose 52.5) was 46.6 µg/g and the NAD concentration ([1]; 24 hr after 500 mg/kg oral gavage, pre-dose 713) was 731 µg/g. The NAAD concentration ([1]; 24 hr after 500 mg/kg oral gavage) was “BDL”, the NMN concentration ([2]; 0.25 hr after 500 mg/kg oral gavage, pre-dose 0.00225) was 0.002 mmol/kg and the NAM concentration ([2]; 0.25 hr after 500 mg/kg oral gavage, pre-dose 0.159) was 0.161 mmol/kg. It also gave an NMN concentration ([2]; 0.25 hr after 500 mg/kg oral gavage, pre-dose 0.752) of 0.667 µg/g, an NAD concentration ([2]; 0.25 hr after 500 mg/kg oral gavage, pre-dose 0.781) of 0.826 mmol/kg and an NAM concentration ([2]; 0.25 hr after 500 mg/kg oral gavage, pre-dose 19.4) of 19.7 µg/g. The NAD concentration ([2]; 0.25 hr after 500 mg/kg oral gavage, pre-dose 518) was 548 µg/g, the NAAD concentration ([2]; 0.25 hr after 500 mg/kg oral gavage, pre-dose BDL) was “BDL” and the NMN concentration ([2]; 0.75 hr after 500 mg/kg oral gavage, pre-dose 0.00225) was 0.00196 mmol/kg. For the same molecule, the NAM concentration ([2]; 0.75 hr after 500 mg/kg oral gavage, pre-dose 0.159) was 0.208 mmol/kg, the NMN concentration ([2]; 0.75 hr after 500 mg/kg oral gavage, pre-dose 0.752) was 0.656 µg/g and the NAD concentration ([2]; 0.75 hr after 500 mg/kg oral gavage, pre-dose 0.781) was 0.861 mmol/kg. The NAM concentration ([2]; 0.75 hr after 500 mg/kg oral gavage, pre-dose 19.4) was 25.3 µg/g and the NAD concentration ([2]; 0.75 hr after 500 mg/kg oral gavage, pre-dose 518) was 571 µg/g.
